Results as given in patent US8017124B2, “Use of DMBT1 for capturing sulphate and phosphate group exposing agents” (priority 2004, dated 2011).
Read-outs that look alike come from different tables or passages of the source.

Legend:
DMBT1 = target: T1, DMBT1 (Homo sapiens, UniProt Q9UGM3); assay: Binding of DMBT1/rDMBT1 to immobilized candidate substances (ELISA); details: substance immobilized; DMBT1 or rDMBT1 10 μg/ml
T1 construct: was obtained from parotid saliva of healthy volunteer donors collected with Lashley cups; from tissue; host or cells: parotid saliva of healthy volunteer donors, purified to about 95% homogeneity
Procedure: For the peptide binding studies we used, unless otherwise indicated, 20 μg/ml peptide in a total volume of 100 μl (dilution in coating buffer, 100 mM carbonate buffer, pH 9.6) for the coating of high affinity ELISA plates (Microlon, Fluotrac 600; Greiner). When immobilizing rDMBT1, purified, partially purified DMBT1 or substances to be tested, we applied serial dilutions in coating buffer onto the plates. Coating was done at 4° C. for 16 h and was followed by three washes with PBS-T with 1 mM CaCl2 (PBS-TC). For the analysis of bacterial binding to immobilized peptides or protein, we incubated the wells with 100 μl bacterial solution at 37° C. for 2 h. After removal of unbound bacteria, 100 μl of SYTO-9 solution (Molecular Probes), which is a cell-permeable fluorescent DNA dye, was added, plates were incubated in the dark for 15 min and after three washes with PBS-TC, fluorescence was measured by determination of the emission at 535 nm with a microtiter plate reader (488 n=excitation; Fluostar Galaxy, BMG Laboratories). DNA binding to immobilized DMBT1 was analyzed by using the same plasmid (LPS-free preparation) as used for the competitive aggregation and transfection assays (see below). Bound DNA was detected analogous to detection of bacteria except for using SYTQ-13 as dye. […]

[1] = target: T2, human recombinant DMBT1 (rDMBT1) (Homo sapiens, UniProt Q9UGM3, G1295S/L1336F/T649M); assay: Turbidometric competition assay, rDMBT1-mediated Streptococcus gordonii aggregation; format: binding; details: 0.32% to 2.50% (w/v) DSS; 0.28% to 0.84% degraded carrageenan; rDMBT1 15 μg/ml
T2 construct: made in house; purified from culture supernatant
Procedure: (§1) Streptococcus gordonii (strain: […]) was cultured under anaerobic conditions as described before^17, harvested by centrifugation at 3,000 g, washed twice with PBS containing 10 mM EDTA and once with PBS and finally resuspended in PBS to a final OD700 of 2.0 corresponding to about 2.0×10^9 cells/ml, respectively.
(§2) Competition assays were carried out in a final volume of 500 μl at RT. Streptococcus gordonii (250 μl in PBS) was mixed with 100 μl synthetic peptide DMBT1-SRCRP2 diluted 1:1 in PBS (final concentration in the assay: 100 μg/ml) or 100 μl purified rDMBT1 in PBS (final concentration in the assay: 15 μg/ml) and 150 μl of the respective competitor stock solutions, so that the final concentrations ranged from 0.32% to 2.50% (w/v) DSS and 0.28% to 0.84% […] degraded carrageenan. Samples with 0.0% competitor served as controls. The samples were placed in a spectrophotometer (Anthelie; SECOMAN, France) and the OD700-value was measured in intervals of 3 minutes. Each experiment was at least done in triplicate. For the DSS competition studies, we used the same DSS as in the animal experiments (Mr=36-50 kDa; ICN Biomedicals Aurora). High molecular weight lambda carrageenan was obtained from Sigma (Taufkirchen; Germany). […]

human rDMBT1 = target: T3, human rDMBT1 (Homo sapiens, UniProt Q9UGM3, G1295S/L1336F/T649M); assay: Binding of human rDMBT1 to immobilized DSS and degraded lambda carrageenan; details: rDMBT1 10 μg/ml; immobilized substance
T3 construct: made in house; purified from culture supernatant
Procedure: DSS was serially diluted in coating buffer (100 mM carbonate buffer, pH 9.6) to obtain final concentrations of 2.5% to 0.02% (w/v). One hundred μl of the samples were applied onto ELISA plates (Microlon, F-Form; Greiner, Germany) and coating was done at 4° C. for 16 h. Acid hydrolyzed and pH-adjusted lambda carrageenan was serially diluted with the solvent (approximately 50 mM HCl and 50 mM NaOH) to obtain concentrations ranging from 2.8% to 0.0055% […] and coating of ELISA plates was done at 37° C. for 2 h. After coating and three washes with TBS containing 0.1% (v/v) Tween 20 (TBS-T), rDMBT1 (10 μg/ml in TBS-T) was added to each well and incubated at 37° C. for 1 h. The wells were then washed five times with 200 μl TBS-T, incubated at 37° C. for 1 h with the DMBT1-specific mouse monoclonal antibody anti(A2) gp-340 (Hyb213-06; Antibody-Shop; dilution 1:10,000 in TBS-T), washed again five-times with TBS-T, and incubated at 37° C. for 1 h with a rabbit anti-mouse IgG-HRP conjugate (Jackson; dilution 1:10,000 in TBS-T). Subsequent to five washes with TBS-T, 150 μl substrate (125 μg/ml 3,3′,5′-Tetramethyl-benzidine; in 0.1 M citrate buffer pH 4.5 with 0.05% (v/v) H2O2) were added, and after incubation at RT for 10-15 min the reaction was stopped by addition of […] 2 M HCl. The intensity of the dye reaction was measured at 450 nm in an ELISA reader (EL800; Bio-Tec Instruments Inc.). […]

DMBT1pbs1 = target: T4, DMBT1pbs1 (Homo sapiens, UniProt Q9UGM3); format: binding; parameters: key: +++: no difference in aggregation compared to reference; ++: moderate inhibition of aggregation over the entire time course or maximal aggregation delayed by 1-5-min compared to reference; +: strong inhibition of aggregation over the entire time course or maximal aggregation delayed by 5-10 min compared to reference; −: complete inhibition of aggregation after 10 min; details: pH co
T4 construct: purchased Eurogentec, Belgium
Procedure: Streptococcus mutans (Ingbritt), Streptococcus gordonii (HG 222 and DSM20568), Escherichia coli (F7 and OM36-1), and Helicobacter pylori (ATCC 43504) were gown and processed as described earlier. Salmonella typhimurium (strain SF1399: wild type; strain SF1195: Rc chemotype; strain SF1567: Rd1 chemotype; strain SF1398: Re chemotype) were kindly provided by Dr. Ben Appelmelk from the Free University of Amsterdam, The Netherlands, and were grown and processed as previously described for E. coli. The bacteria were diluted in the buffers depicted previously to a final OD700 of 0.5 or 1.0 corresponding to about 0.5 and 1.0×10^9 cells/ml respectively.
For quantitative measurements of bacterial aggregation, we added 200 μl peptide stock solution (1 mg/ml in 10% DMSO) diluted with 300 μl TBS containing 0.1% v/v Tween 20 and 1 mM CaCl2 (TBS-TC) to 500 μl of the respective bacterial suspensions to obtain final peptide concentrations of […]. As controls, we used bacterial suspensions, to which 200 μl 10% (v/v %) DMSO in H2O and 300 μl TBS-TC were added. Bacterial aggregation was monitored by measuring the optical density at 700 nm in intervals of 1 min for 1 h in a spectrophotometer (UVICON 930, Kontron Instruments). For the semi-quantitative high-throughput competition assays, we first determined the allowed pH range for DMBT1pbs1-mediated aggregation of S. gordonii and E. coli by using TBS-TC adjusted with either HCl or NaOH. […] For monitoring competitive effects, we preincubated 20 μl of the DMBT1pbs1 stock solution (20 μg) with 20 μl of the respective substance solutions in 48-well microtiter plates at room temperature (RT) for 2 min. As reference served 20 μl 10% (v/v) DMSO solution in H2O mixed with 20 μl of the solvents of the respective substances. Afterwards, 100 μl of S. gordonii or E. coli (resuspended in TBS-TC or TBS-T, respectively, for the calcium-free assays) solution was added simultaneously to each well using a multichannel pipette. Bacterial aggregation was compared to the reference by visual inspection over a time course of 10 min. The scoring system was: (+++) no difference in aggregation compared to reference. (++) moderate inhibition of aggregation over the entire time course or maximal aggregation delayed by 1-5-min compared to reference; (+) strong inhibition of aggregation over the entire time course or maximal aggregation delayed by 5-10 min compared to reference; (−) complete inhibition of aggregation after 10 min. Each experiment was at least done in triplicate.
Sucrose, maltose, dextrose, and the various salts tested were standard reagents obtained from Merck or Sigma. […] The following substances were obtained from Sigma with catalogue numbers in brackets: heparansulfate (H-7640), chondroitinsulfate B (C-3788), azoxymethane (A-9517), N-nitrosodiethlylamine (N-0258), streptococcus sanguis LTA (L-3765), Staphylococcus aureus LTA (L-2515), Escherichia coli LPS (L-3012), Klebsiella pneumoniae LPS (L-1770), Salmonella typhimurium LPS (L-6511), Salmonella minnesota LPS (chemotype Rd1; L-9391), L-α-phosphatidylcholine (P-279), CUROSURF™ with 80 mg/ml phospholipids from pig surfactant (54 mg/ml phosphatidylcholine and 30-5 mg/ml D-palmitoylphosphatidylcholine; overall: 99% polar phospholipids and 1% proteins) was obtained from Dey (Napa; Italy), and sIgA was purchased from Sigma. The dNTPs and the dNTP-Mix were from Roche Diagnostics. The DNA used in all experiments was the 4.7-kb plasmid pEGFP-N1 from Clontech.

DMBT1-SRCRP2 = target: T5, DMBT1-SRCRP2 (Homo sapiens, UniProt Q9UGM3); assay: Turbidometric competition assay, DMBT1-SRCRP2-mediated bacterial aggregation; format: binding; details: 0.32% to 2.50% (w/v) DSS; 0.28% to 0.84% degraded carrageenan; peptide 100 μg/ml
T5 construct: purity >85%); purchased Eurogentec (Belgium); host or cells: chemical synthesis
Procedure: as §1, §2

[2] = target: T6, rDMBT1 binding to HIV-gp120 (Homo sapiens, UniProt Q9UGM3, G1295S/L1336F/T649M); assay: Effects of DSS and dextran on rDMBT1 binding to HIV-gp120; details: 100 μg/ml DSS or dextran; rDMBT1 2 μg/ml; gp120 1 μg/ml
T6 construct: made in house; host or cells: rDMBT1 from T-REx-CHO
Excerpt: Values are means of five independent experiments.

T1 sequence (Q9UGM3 20-2413): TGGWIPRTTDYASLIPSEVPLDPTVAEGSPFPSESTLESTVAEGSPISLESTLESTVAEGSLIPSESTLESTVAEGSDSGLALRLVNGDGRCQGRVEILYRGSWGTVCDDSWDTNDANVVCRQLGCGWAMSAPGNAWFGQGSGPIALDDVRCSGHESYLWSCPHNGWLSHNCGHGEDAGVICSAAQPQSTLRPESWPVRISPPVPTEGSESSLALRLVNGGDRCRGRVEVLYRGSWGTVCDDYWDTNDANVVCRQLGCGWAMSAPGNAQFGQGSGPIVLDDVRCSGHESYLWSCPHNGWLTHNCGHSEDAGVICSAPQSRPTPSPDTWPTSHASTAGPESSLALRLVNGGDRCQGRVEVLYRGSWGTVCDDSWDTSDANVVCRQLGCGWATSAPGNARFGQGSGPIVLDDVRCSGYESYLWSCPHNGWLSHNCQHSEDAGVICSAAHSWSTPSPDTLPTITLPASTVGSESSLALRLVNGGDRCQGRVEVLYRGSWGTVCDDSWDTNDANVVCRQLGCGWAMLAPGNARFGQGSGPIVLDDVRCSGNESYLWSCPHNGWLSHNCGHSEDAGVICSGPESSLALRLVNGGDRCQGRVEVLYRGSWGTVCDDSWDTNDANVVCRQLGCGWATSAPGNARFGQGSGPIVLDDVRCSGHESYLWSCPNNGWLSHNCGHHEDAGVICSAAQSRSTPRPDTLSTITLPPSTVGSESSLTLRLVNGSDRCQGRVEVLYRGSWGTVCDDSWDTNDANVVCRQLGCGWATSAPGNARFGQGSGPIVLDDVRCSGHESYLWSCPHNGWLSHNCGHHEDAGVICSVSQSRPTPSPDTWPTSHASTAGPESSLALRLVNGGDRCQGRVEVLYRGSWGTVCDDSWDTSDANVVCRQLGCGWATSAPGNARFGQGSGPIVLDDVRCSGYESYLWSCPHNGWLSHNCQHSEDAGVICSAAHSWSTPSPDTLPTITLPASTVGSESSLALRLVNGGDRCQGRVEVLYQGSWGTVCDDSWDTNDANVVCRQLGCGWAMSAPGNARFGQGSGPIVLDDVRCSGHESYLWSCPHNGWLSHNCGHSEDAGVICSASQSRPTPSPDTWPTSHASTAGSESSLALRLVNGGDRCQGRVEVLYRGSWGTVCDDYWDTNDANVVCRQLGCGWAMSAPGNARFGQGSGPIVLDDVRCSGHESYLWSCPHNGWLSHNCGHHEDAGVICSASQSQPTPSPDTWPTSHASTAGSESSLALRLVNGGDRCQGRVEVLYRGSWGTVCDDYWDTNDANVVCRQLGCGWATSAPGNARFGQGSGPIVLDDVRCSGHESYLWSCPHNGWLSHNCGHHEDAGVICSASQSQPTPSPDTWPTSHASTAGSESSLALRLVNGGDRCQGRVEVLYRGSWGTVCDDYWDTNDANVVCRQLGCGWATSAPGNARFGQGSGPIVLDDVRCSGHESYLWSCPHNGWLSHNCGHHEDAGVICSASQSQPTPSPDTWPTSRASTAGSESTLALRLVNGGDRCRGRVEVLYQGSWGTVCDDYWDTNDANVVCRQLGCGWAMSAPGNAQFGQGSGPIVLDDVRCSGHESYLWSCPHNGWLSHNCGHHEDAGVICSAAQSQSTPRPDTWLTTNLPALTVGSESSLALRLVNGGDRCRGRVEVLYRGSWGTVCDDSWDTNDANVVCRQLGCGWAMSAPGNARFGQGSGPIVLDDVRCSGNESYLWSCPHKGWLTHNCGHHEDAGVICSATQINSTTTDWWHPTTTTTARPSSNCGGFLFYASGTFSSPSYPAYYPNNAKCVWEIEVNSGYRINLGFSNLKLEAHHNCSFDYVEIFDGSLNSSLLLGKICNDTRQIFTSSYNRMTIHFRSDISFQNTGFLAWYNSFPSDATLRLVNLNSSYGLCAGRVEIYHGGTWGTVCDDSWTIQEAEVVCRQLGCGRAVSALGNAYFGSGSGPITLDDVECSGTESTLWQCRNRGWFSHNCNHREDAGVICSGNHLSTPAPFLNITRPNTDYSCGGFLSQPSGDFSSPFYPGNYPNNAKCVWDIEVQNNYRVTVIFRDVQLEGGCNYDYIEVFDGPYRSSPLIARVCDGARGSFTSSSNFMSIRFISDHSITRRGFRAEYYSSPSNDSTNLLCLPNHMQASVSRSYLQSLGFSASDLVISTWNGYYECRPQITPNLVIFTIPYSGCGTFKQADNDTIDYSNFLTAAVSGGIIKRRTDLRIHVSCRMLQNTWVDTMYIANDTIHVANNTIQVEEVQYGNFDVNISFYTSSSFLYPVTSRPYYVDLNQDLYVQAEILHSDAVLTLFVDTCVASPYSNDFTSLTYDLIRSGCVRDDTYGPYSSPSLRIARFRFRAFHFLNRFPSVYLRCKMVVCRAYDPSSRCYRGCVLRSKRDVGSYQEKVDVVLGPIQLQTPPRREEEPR
T2 sequence (Q9UGM3 20-2413 T649M/G1295S/L1336F): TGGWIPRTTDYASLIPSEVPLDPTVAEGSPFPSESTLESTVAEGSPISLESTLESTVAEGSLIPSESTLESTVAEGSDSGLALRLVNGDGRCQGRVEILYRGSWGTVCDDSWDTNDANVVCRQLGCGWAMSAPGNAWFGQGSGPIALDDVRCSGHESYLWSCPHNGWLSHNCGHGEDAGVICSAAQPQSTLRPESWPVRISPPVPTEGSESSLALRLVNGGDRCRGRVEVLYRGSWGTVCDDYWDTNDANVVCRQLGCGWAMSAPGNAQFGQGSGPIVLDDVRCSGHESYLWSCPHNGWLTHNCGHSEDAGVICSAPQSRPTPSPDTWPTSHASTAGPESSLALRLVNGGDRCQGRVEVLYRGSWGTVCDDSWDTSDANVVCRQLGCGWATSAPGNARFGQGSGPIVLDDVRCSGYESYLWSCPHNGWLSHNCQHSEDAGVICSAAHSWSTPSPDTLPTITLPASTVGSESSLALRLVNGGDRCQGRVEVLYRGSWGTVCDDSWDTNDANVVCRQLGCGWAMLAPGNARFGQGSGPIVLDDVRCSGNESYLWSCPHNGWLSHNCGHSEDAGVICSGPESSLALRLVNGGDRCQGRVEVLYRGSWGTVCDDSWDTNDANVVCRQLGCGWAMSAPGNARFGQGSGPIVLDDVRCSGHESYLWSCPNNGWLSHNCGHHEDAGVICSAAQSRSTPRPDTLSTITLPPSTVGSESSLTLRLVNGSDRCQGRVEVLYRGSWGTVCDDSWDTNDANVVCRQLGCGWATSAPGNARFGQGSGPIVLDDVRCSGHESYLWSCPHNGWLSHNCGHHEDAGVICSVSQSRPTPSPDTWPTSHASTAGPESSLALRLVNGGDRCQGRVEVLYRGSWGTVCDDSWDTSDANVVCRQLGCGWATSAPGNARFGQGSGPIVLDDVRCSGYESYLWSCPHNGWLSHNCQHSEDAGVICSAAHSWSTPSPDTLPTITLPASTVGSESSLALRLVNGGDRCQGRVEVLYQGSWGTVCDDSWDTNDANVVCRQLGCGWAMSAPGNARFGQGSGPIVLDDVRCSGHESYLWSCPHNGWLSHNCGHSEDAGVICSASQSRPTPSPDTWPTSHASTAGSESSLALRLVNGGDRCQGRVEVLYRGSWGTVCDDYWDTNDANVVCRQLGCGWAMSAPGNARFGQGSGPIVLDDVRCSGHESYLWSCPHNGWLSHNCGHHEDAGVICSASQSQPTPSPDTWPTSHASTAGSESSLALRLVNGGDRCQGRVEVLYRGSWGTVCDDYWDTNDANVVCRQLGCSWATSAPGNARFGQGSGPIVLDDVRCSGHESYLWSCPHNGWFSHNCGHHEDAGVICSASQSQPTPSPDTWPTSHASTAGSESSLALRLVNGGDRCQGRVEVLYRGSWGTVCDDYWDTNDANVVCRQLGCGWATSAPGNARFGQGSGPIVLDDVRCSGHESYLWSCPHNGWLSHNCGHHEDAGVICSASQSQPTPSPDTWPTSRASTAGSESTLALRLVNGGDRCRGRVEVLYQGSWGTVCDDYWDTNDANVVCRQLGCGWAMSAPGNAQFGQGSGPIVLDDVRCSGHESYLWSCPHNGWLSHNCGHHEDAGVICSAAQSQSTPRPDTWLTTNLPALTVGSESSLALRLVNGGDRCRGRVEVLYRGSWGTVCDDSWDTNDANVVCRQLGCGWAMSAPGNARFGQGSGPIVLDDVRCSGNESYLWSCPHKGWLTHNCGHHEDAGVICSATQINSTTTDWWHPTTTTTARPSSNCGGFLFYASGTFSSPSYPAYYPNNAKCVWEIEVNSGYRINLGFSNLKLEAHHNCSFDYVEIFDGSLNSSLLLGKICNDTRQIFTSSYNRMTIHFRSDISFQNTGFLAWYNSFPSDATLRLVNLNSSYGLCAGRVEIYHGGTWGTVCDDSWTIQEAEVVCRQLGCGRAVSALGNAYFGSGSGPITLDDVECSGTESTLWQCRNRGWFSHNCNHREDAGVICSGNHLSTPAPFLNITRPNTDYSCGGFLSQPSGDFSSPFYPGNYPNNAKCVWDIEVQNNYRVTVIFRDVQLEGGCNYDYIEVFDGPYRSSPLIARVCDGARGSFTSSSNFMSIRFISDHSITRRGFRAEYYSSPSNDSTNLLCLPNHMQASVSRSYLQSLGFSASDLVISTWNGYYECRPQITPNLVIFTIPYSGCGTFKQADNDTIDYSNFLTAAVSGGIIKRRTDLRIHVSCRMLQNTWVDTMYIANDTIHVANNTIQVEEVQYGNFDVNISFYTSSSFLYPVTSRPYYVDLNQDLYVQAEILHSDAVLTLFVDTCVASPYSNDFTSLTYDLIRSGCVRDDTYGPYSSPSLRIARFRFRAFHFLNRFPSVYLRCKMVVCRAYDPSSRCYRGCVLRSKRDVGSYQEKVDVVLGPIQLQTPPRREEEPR

Substance	binding to DMBT1 (DMBT1)	Inhibitory effects on rDMBT1-mediated Streptococcus gordonii aggregation [1]	direct interaction with human DMBT1 (competition and binding studies in vitro) (human rDMBT1)	Aggregation of E. coli (DMBT1pbs1; substance 0.05 mg/ml)	Aggregation of S. gordonii (DMBT1pbs1; substance 0.05 mg/ml)	Aggregation of S. gordonii (DMBT1pbs1; substance 0.1 mg/ml)	Inhibitory effects on bacterial aggregation mediated by DMBT1-SRCRP2 (DMBT1-SRCRP2)	inhibition of rDMBT1 binding to immobilized HIV-gp120 [2]	Aggregation of E. coli (DMBT1pbs1; substance 10-50 mg/ml)	Aggregation of S. gordonii (DMBT1pbs1; substance 10-50 mg/ml)
lipoteichoic acid [LTA]	showed binding to DMBT1									
Degraded lambda-carrageenan		Inhibitory effects	directly interacted	+++	++	+	Inhibitory effects			
lipopolysaccharide [LPS]	showed binding to DMBT1									
Dextran sulfate sodium [Dextran sulfate sodium (DSS)]		Inhibitory effects	directly interacted				Inhibitory effects	exerted an inhibitory effect	−	−
